Patent US8013190B2, “Chemical composition with borane clusters for use as an HIV protease inhibitor” (Vysoka Skola Chemicko-Technologicka V Praze, priority 2004, dated 2011)
pIC50, pKi: −log10 of the molar value. Read-outs that look alike come from different tables or passages of the source.

Columns and labels:
[1] = molecular target: T1, wild type HIV-1 protease (Human immunodeficiency virus type 1 group M subtype B, UniProt P12497); test: Inhibition of pure recombinant HIV protease with chromogenic peptide substrate (spectrophotometric); type: biochemical; details: for IC50: wild type HIV-1 protease, pH 4.7
T1 construct: using pure recombinant HIV protease and chromogenic peptide substrate
Experimental: (§1) Initially, known and novel compounds were tested as to their ability to inhibit specific activitity of HIV protease in vitro using pure recombinant HIV protease and chromogenic peptide substrate derived from amino acid sequence of one of the sites of cleavage of viral polyprotein. Testing was performed using the method published by one of the co-inventors of this invention (Konvalinka, J., Litera, J., Weber, J., Vondrásek, J., Hradilek, M., Soucek, M., Pichová, I., Majer, P., Strop, P., Sedlácek, J., Heuser, A. -M., Kottler, H. and Kraeusslich, H. -G. (1997). Eur. J. Biochem. 250, 559-566). […] The reaction course is observed spectrophotometrically as decrease of the absorbance at 305 nm.
The mechanism of action of tested compounds (inhibition type) were determined from dependence of initial reaction rate on substrate concentration at different inhibitor concentrations (Lineweaver-Burke plot). Dependence of initial enzyme reaction rate on substrate concentration is measured at various inhibitor concentrations (here 0 and 15 μM). The measurements were performed at pH 4.7, 37° C. in 0.1 M acetate buffer containing 0.3M NaCl. y axis: reciprocal value of initial enzyme reaction rate, x axis: reciprocal value of substrate concentration (mol/dm^3).

[2] = test system: HIV proviral clone NL 4-3; test: HIV infectivity inhibition in tissue cultures transfected with proviral clone NL4-3, titration on TZM reporter cells; type: cell-based; details: for effect on virus infectivity: 293 T cells transfected by NL 4-3, FIG. 5
Experimental: The antiviral activity of compounds GB-8, GB-12 and GB-16 in tissue cultures was analyzed using two variations of a published procedure (Benyoucef S, Hober D, Shen L, Ajana F, Gerard Y, Bocket-Mouton L, Mouton Y, Wattre P. (1996) Microbiol Immunol. 40(5), 381-8). The production of infectious HIV particles and influences of HIV protease inhibitors on the infectivity was directly determined by these assays.
For testing of compounds GB-8, GB-12 and GB-16, HeLa cells were transfected by DNA encoding pNL-43 strain of HIV virus that contained beta-galactosidase gene in the site of viral nef gene. All transfections were performed in duplicate. Medium was replaced the next day following the transfection, and protease inhibitors dissolved in DMSO were added into fresh medium. The control was incubated in the same DMSO concentration as tested cells. The supernatant of transfected cells was used in next round for reporter cells infection. Infectivity was quantified by enzyme beta-galactosidase activity in infected cells and the infected cells were visualised using chromogenic beta-galactosidase substrate (X-gal). Viral proteins of newly created virions were separated by SDS PAGE and immunochemically visualised using antibodies against HIV capsid protein (Western blot).
In paralel experiments, HIV was produced in 293 T cells transfected by proviral clone NL 4-3. All transfections were performed in duplicate. Medium was replaced the next day following the transfection, and protease inhibitors dissolved in DMSO were added into fresh medium. The control was incubated in the same DMSO concentration as tested cells. Viral infectivity was quantified by titration of the cell supernatant by TZM cell (reporter cells bearing in their genome LTR promotor from HIV bound with beta-galactosidase gene, activated by Tat protein produced by the virus). After two days following the infection the reporter cells were lysed and fixed by methanol/acetone mixture. Beta-galactosidase activity of infected cells was visualised by blue color after chromogenic substrate X-gal addition.

[3] = test system: mutant HIV-1 PR 3/1; test: Inhibition of recombinant protease, chromogenic substrate; type: biochemical
Experimental: as §1, with “nm. IC50 values of tested compounds were calculated from experimental data, as taught in (Majer, P., Urban, J., Gregorová, E., Konvalinka, J., Novek, P., Stehlíková, J., Andreánsky, M., Sedlácek, J. and Strop, P. (1993) Arch.Biochem.Biophys. 304, 1-8) and are shown in Table 1.” for “nm.”
(§2) Inhibition testing of GB-16 was performed also for wild type HIV-2 protease, mutant HIV-1 PR 3/1 and cathepsin D. Results are shown in Table 2.

[4] = molecular target: T2, wild-type HIV-2 PR (Human immunodeficiency virus type 2 subtype A, UniProt P04584); test: as above; type: biochemical
T2 construct: performed also for wild type HIV-2 protease, mutant HIV-1 PR 3/1 and cathepsin D
T2 sequence (P04584 514-612 limits assumed): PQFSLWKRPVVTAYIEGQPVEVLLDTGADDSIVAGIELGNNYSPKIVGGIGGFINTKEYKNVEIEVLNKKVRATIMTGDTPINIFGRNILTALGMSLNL
Experimental: as §1, with “nm. IC50 values of tested compounds were calculated from experimental data, as taught in (Majer, P., Urban, J., Gregorová, E., Konvalinka, J., Novek, P., Stehlíková, J., Andreánsky, M., Sedlácek, J. and Strop, P. (1993) Arch.Biochem.Biophys. 304, 1-8) and are shown in Table 1.” for “nm.”
as §2

[5] = molecular target: cathepsin D (Homo sapiens, UniProt P07339); test: as above; type: biochemical
Sequence of cathepsin D (P07339 65-412, species assumed): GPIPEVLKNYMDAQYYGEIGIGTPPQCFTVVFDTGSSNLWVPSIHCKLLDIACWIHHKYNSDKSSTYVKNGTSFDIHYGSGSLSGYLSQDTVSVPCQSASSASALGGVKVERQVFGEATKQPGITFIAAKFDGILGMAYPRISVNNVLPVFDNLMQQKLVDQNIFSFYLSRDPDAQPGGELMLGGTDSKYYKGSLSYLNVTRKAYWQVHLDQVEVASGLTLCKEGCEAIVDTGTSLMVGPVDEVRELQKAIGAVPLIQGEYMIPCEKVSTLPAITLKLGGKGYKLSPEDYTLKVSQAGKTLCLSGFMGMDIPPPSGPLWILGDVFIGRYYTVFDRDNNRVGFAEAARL
Experimental: as §1, with “nm. IC50 values of tested compounds were calculated from experimental data, as taught in (Majer, P., Urban, J., Gregorová, E., Konvalinka, J., Novek, P., Stehlíková, J., Andreánsky, M., Sedlácek, J. and Strop, P. (1993) Arch.Biochem.Biophys. 304, 1-8) and are shown in Table 1.” for “nm.”
as §2

[6] = molecular target: T3, HIV PR 5/1 (L10I, I15V, E35D, N37S, R41K, I62V, L63P, A71V, G73S, L90M) (Human immunodeficiency virus type 1 group M subtype B, UniProt P12497, A559V/E523D/G561S/I503V/I550V/L498I/L551P/L578M/N525S/R529K); type: biochemical, HIV-1; details: read-out: Inhibition constants Ki
T3 construct: using pure recombinant HIV protease and chromogenic peptide substrate
Experimental: as §1

[7] = molecular target: T4, HIV PR 15 (M46I, A71V, V82T, I84V) (Human immunodeficiency virus type 1 group M subtype B, UniProt P12497, A559V/I572V/M534I/V570T); type: biochemical, HIV-1; details: read-out: Inhibition constants Ki
T4 construct: using pure recombinant HIV protease and chromogenic peptide substrate
Experimental: as §1

[8] = molecular target: T5, HIV PR K4 (L10I, L24I, L33F, M46L, I54V, L63P, A71V, V82A, I84V) (Human immunodeficiency virus type 1 group M subtype B, UniProt P12497, A559V/I542V/I572V/L498I/L512I/L521F/L551P/M534L/V570A); type: biochemical, HIV-1; details: read-out: Inhibition constants Ki
T5 construct: using pure recombinant HIV protease and chromogenic peptide substrate
Experimental: as §1

For “[8,8′-μ-O-(1,2-C2B9H10)(1′,2′-C2B9H10)-3,3′-Co]Na [GB-12]”, the IC50 ([1]; Table 1 values in μM) was 5.2 µM and the “effect on virus infectivity” value [2] was “block the virus infectivity”.

In the case of “[8-(OH-1,2-C2B9H10)(1′,2′-C2B9H11)-3,3′-Co]Na.nH2O [GB-8]”, the IC50 ([1]; Table 1 values in μM) was 13.5 µM and the “effect on virus infectivity” value [2] was “block the virus infectivity”.

In the case of “[8-(O-P(═O)(OH)2)-(1,2-C2B9H10)(1′,2′-C2B9H11)-3,3′-Co]Na.nH2O [GB-16]”, the “mechanism of action (inhibition type), Lineweaver-Burke plot” value ([1]; inhibitor 0 and 15 μM, pH 4.7, 37° C.) was “competitive inhibitor”, the IC50 ([1]; Table 1 values in μM) was 6.2 µM and the pIC50 ([1]; wild-type HIV-1 PR, Table 2) was 5.21. It also gave a pKi ([1]; wild-type HIV-1 PR, Table 2, read-out: Ki) of 4.79, a pIC50 [3] of 4.87 and a pKi [3] of 5.44. For the same substance, the pIC50 [4] was 4.81, the pKi [4] was 5.13 and the pIC50 [5] was 4.48. For the same substance, the pKi [5] was 4.76, the “HIV infectivity, % of the initial value” ([2]; 10 μM solution, 293 T cells / TZM reporter cells) was about 27% and the “effect on virus infectivity” value [2] was “block the virus infectivity”.

With “[(8-((C6H5CH2OCH2)2(HOCH2)C-CH2O-(CH2-CH2O)2)-1,2-C2B9H10)(1′,2′-C2B9H11)-3,3′-Co]Na [GB-55]” the IC50 ([1]; Table 1 values in nM) was 0.12 µM.

For [(C2B9H10)2-3-Fe]Na.4H2O [GB-23], the IC50 ([1]; Table 1 values in nM) was 0.55 µM.

Substance “[(8-((2-CH2-C6H5)-C6H4O-(CH2-CH2O)2)-1,2-C2B9H10)(1′,2′-C2B9H11)-3,3′-Co]Na [GB-42]” has an IC50 ([1]; Table 1 values in nM) of 0.1 µM.

In the case of “[(1,2-C2B9H10)-3,3′-Co(1′,2′-C2B9H11)-8-(OCH2CH2)2NH-CH2CH2OCH2CH2-8″-O-(1″,2″-C2B9H10)-3″,3′″-Co(1′″,2′″-C2B9H11)]Na [GB-80]”, the IC50 ([1]; Table 1 values in nM) was 0.14 µM, the pKi ([1]; wild type, Table 3, read-out: Inhibition constants Ki) was 8.31 and the pKi [6] was 7.40. For the same substance, the pKi [7] was 7.66 and the pKi [8] was 7.89.

“[(1,2-C2B9H10)-3,3′-Co(1′,2′-C2B9H10)-8,8′-μ-NH-CH2-CH(OH)-CH2-8″,8′″-μ-NH-(1″,2″-C2B9H10)-3″,3′″-Co(1′″,2′″-C2B9H10)] [GB-24]” gave an IC50 ([1]; Table 1 values in nM) of 0.16 µM.

“[(1,2-C2B9H10)-3,3′-Co(1′,2′-C2B9H11)-8-(OCH2CH2)2NH(C(CH3)3)-CH2CH2OCH2CH2-8″-O-(1″,2″-C2B9H10)-3″,3′″-Co(1′″,2′″-C2B9H11)]Na [GB-106]” was tested, and the IC50 ([1]; Table 1 values in nM) was 0.13 µM.

In the case of “[1,3,5-((1,2-C2B9H10)-3,3′-Co(1′,2′-C2B9H11)-8-(OCH2CH2)2O)3-″C6H3]Na3 [GB-78]”, the IC50 ([1]; Table 1 values in nM) was 0.12 µM.

“[(8-((C6H5CH2)2CH-O-(CH2-CH2O)2)-1,2-C2B9H10)(1′,2′-C2B9H11)-3,3′-Co]Na [GB-58]” gave an IC50 ([1]; Table 1 values in nM) of 0.16 µM.
